Source: patent publication US8466340B2, “Mouse model for pompe disease and methods of use thereof” (Amicus Therapeutics, Inc., priority 2009, dated 2013)
Where a name gives a salt, the structure may show the parent alone.

Columns and labels:
Half-life of DNJ = settings: stated within a theory on/off dosing, compared to GAA (days); no method
alpha-galactosidase = target: T1, alpha-galactosidase (Mus musculus, UniProt P51569); experiment: Specificity: alpha-galactosidase in mice administered DNJ; type: in vivo; settings: data not shown
T1 construct: from tissue
T1 sequence (P51569 32-419): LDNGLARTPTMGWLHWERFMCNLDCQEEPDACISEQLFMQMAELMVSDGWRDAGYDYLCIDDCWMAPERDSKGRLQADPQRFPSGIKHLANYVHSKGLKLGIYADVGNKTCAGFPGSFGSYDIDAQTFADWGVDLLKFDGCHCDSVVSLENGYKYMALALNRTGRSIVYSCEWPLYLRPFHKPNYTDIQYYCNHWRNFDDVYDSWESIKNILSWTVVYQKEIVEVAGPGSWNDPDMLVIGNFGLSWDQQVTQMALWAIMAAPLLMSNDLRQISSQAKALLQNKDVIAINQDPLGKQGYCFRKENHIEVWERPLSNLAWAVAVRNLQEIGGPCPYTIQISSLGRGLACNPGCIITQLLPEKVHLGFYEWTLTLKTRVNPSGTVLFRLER

hP545L GAA [1] = target: T2, hP545L GAA (Homo sapiens, UniProt P10253, P545L); experiment: GAA protein level by Western blotting in tissues of DNJ-dosed hP545L GAA Tg/KO mice; type: in vivo; settings: 'Moderate' hP545L GAA Tg/KO mice; DNJ 30, 100, 300 mg/kg/day oral, 4 weeks; disease-relevant tissues
Experimental: (§1) Mice were euthanized with CO2 and body weights were recorded. […] Plasma was collected by spinning blood at 2700 g for 10 minutes at 4° C. Heart, diaphragm, gastrocnemius, soleus, skin, and brain tissues were removed, washed in cold PBS, blotted dry, and weighed before storing on dry ice. For biochemical assays (GAA activity, glycogen and Western blotting), lysates were prepared by homogenizing ˜50 mg tissue for 3-5 seconds on ice with a micro homogenizer in 200 μL Lysis Buffer (25 mM Bis-Tris pH 6.5, 150 mM NaCl, 1% Triton X-100 pH 6.5). For histology assays, tissues were harvested and fixed immediately in 3.7% Formaldehyde/90% Ethanol mix. After fixation, the samples were processed in various grades (10, 20, 50, 75, 100%) of alcohol and embedded in paraffin.
Tissue lysates (50 μg total protein per lane) were subjected to SDS-PAGE on 12% gels (Bio-Rad, Hercules, Calif.), transferred to PVDF membranes (Bio-Rad), and immunoblotted with a rabbit anti-human GAA (kind gift of Dr. Barry Byrne) polyclonal antibody (1:500 dilution). Protein bands were detected using peroxidase-conjugated goat anti-rabbit secondary antibodies (1:1000) (Jackson Immunosearch Labs, West Grove, Pa.) in combination with enhanced chemiluminescence (Pierce). […]
(§2) The dosing solutions were made fresh each week and water consumption was monitored daily.

[2] = tested on: mutant forms of GAA in Pompe patient-derived fibroblasts; experiment: Level of mutant GAA in Pompe patient-derived fibroblasts; type: cell-based, human; settings: data not shown
GAA [3] = experiment: GAA activity, protein and processing in monkeys administered DNJ orally; type: in vivo, cynologous monkeys; settings: cynomolgus monkeys, data not shown
GAA [4] = target: T3, GAA (Mus musculus, UniProt P70699); experiment: GAA activity, protein and processing in mice administered DNJ orally; type: in vivo; settings: data not shown
T3 construct: from tissue

[5] = target: human GAA missense mutations (Homo sapiens, UniProt P10253, P545L); experiment: In vitro studies to identify a human GAA missense mutation responsive to DNJ; type: cell-based; settings: 5-day incubation with DNJ, data not shown
[6] = tested on: human GAA missense mutations; experiment: as above; type: cell-based; settings: data not shown
[7] = tested on: mutated form of GAA (M519V, P545L, G549R, L552P) in HEK293 cells; experiment: GAA activity, protein and processing in HEK293 cells transiently-transfected with mutated GAA; type: cell-based; settings: data not shown
hP545L GAA [8] = target: T2, hP545L GAA; experiment: Biochemical assay for determining GAA level in tissues of DNJ-dosed hP545L GAA Tg/KO mice; type: in vivo; settings: 'Moderate' hP545L GAA Tg/KO mice; DNJ 30, 100, 300 mg/kg/day oral ad libitum in drinking water, 4 weeks; disease-relevant tissues
Experimental: as §1, §2
(§3) After dosing was completed, mice were euthanized and plasma samples as well as tissue samples harvested as described above.

[9] = tested on: mutant forms of recombinant human GAA in COS-7 cells; experiment: Level of mutant GAA in transiently-transfected COS-7 cells; type: cell-based; settings: COS-7 cells transiently-transfected with recombinant human GAA; data not shown
recombinant human GAA = recombinant human GAA (Homo sapiens, UniProt P10253); experiment: Binding to and thermostability of recombinant human GAA in vitro; settings: data not shown
hP545L GAA Tg/KO mice = experiment: Biochemical assay for determining glycogen level (amyloglucosidase digestion) in tissues of DNJ-dosed hP545L GAA Tg/KO mice; type: in vivo, mouse; settings: 'Moderate' hP545L GAA Tg/KO mice
Experimental: as §1
Tissue glycogen levels were measured in supernatants of heat denatured (99° C. for 10 min.) lysates as prepared above for GAA assay. Samples were analyzed in duplicates by adding 4 μL of lysate to 36 μL water with and without 10 μL of 800 units/mL of amyloglucosidase enzyme (Sigma) and incubated for 1 hour at 50° C. The reaction was stopped by heat inactivation at 100° C. for 10 min. Finally 200 μL of glucose reagent was added to estimate the amount of glucose released at 340 nm absorbance on Spectramax. A glycogen standard curve ranging from 400 μg/mL to 5 μg/mL was run each day for conversion of absorbance data to absolute glycogen levels. Data are ultimately expressed as μg of glycogen cleaved/milligram of protein. The protein levels were measured in lysates (before denaturing) using Micro BCA Protein Assay Kit according to the manufacturer's instructions.
as §2, §3
Mice were orally dosed (ad libitum in drinking water) either daily or using one of three less-frequent on/off regimens (i.e., (i) 3 days on/4 days off; (ii) 5 days on/2 days off; or (iii) 7 days on/7 days off). […] The dosing solution was made fresh each week and water consumption was monitored daily.
After dosing was completed, mice were euthanized and tissue samples harvested as described above.

[10] = DNJ 30, 100, 300 mg/kg/day oral, 4 weeks

T3 sequence (P70699 70-953): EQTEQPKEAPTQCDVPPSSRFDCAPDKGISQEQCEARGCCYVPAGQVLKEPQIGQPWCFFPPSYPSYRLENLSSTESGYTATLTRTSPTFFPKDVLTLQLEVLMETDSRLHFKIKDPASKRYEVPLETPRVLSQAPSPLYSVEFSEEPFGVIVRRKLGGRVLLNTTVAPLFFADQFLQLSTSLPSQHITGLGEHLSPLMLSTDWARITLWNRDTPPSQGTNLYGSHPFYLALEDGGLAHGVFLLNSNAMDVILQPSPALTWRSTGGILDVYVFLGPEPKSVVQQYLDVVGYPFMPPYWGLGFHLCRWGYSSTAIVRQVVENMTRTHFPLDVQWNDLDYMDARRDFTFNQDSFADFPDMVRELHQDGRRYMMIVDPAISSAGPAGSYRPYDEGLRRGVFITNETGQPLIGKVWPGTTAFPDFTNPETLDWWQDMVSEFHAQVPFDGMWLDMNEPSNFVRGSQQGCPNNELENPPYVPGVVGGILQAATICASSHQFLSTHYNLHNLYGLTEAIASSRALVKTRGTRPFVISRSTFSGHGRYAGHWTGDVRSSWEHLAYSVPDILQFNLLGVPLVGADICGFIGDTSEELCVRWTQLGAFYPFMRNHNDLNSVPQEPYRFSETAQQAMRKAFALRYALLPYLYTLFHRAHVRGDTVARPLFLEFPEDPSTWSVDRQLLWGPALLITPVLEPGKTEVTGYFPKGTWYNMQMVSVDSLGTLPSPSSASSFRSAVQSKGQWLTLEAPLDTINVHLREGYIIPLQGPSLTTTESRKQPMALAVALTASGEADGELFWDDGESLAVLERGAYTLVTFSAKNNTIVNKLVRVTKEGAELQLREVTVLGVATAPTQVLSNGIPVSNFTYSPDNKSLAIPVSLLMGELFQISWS

- half-life of DNJ (Half-life of DNJ): hours
- alpha-galactosidase activity (alpha-galactosidase): no increase
- GAA protein levels (hP545L GAA [1]): significant and dose-dependent increase
- processing of GAA protein to its 76 kDa mature form (hP545L GAA [1]): significant and dose-dependent increase
- GAA protein levels (GAA [4]): increased
- processing to the 70-kDa mature form of GAA (GAA [4]): increased
- GAA activity (GAA [4]; oral): increase in a dose-dependent manner
- GAA levels (tissue GAA activity) (hP545L GAA [8]): significant and dose-dependent increase
- binding to GAA (recombinant human GAA): directly bind
- thermostability of recombinant human GAA (recombinant human GAA): concentration-dependent increase
Compound: OC[C@H]1NC[C@H](O)[C@@H](O)[C@@H]1O [DNJ, 1-deoxynojirimycin-HCl]
- level of multiple different mutant forms of GAA [2]: significantly increase
- GAA activity (GAA [3]; oral): increase in a dose-dependent manner
- GAA protein levels (GAA [3]): increased
- processing to the 70-kDa mature form of GAA (GAA [3]): increased
- GAA activity, P545L mutation [5]: robust, reproducible, dose-dependent and statistically-significant increase
- responsiveness of P285R, E262K, E579K GAA mutations to DNJ [6]: even more responsive than P545L
- GAA processing to the 95-, 76-, and 70-kDa forms [7]: increase
- GAA protein levels [7]: increase
- level of GAA activity [7]: increase
- level of multiple different mutant forms of GAA [9]: significantly increase
- glycogen reduction, on/off regimens compared to daily dosing (hP545L GAA Tg/KO mice; 100 mg/kg/day oral, 4 weeks, p<0.05 daily vs. on/off): greater glycogen reduction
- glycogen levels in disease-relevant tissue (hP545L GAA Tg/KO mice; 100 mg/kg/day oral, daily or on/off (3/4, 5/2, 7/7 days), 4 weeks, majority of tissues examined, p<0.05 vs. untreated): significant reduction
- glycogen levels of brain (hP545L GAA Tg/KO mice; [10]): robust reduction
- glycogen levels of diaphragm (hP545L GAA Tg/KO mice; [10]): moderate reduction
- glycogen levels of gastrocnemius (hP545L GAA Tg/KO mice; [10]): moderate reduction
- glycogen levels of heart (hP545L GAA Tg/KO mice; [10]): moderate reduction
- glycogen levels of skin (hP545L GAA Tg/KO mice; [10]): robust reduction
- glycogen levels of soleus (hP545L GAA Tg/KO mice; [10]): robust reduction
- tissue glycogen levels (hP545L GAA Tg/KO mice; four-week oral administration (ad libitum), tissues overall): decrease
